Reference: patent US20180243363A1, “NEUROKININ 1 RECEPTOR AGONIST MEDIATED PROTECTION OF THE EYE” (WAYNE STATE UNIVERSITY, priority 2016, published 2018)
Where a SMILES comes first, the peptide text is derived from it. [ ]: non-standard residue; d: D form. NMeL = CN[C@@H](CC(C)C)C(=O)O; Ava = NCCCCC(=O)O

Columns and labels:
NK1R [1] = target: T1, NK1R (Mus musculus, UniProt P30548); assay: Tear film (basal tear volume) after systemic NK1R antagonist administration; assay type: in vivo; set-up: from tissue; host or cells: living C57Bl/6 mice (in vivo; basal tear volume); details: systemic treatment, C57Bl/6 mice
T1 sequence (P30548 whole entry): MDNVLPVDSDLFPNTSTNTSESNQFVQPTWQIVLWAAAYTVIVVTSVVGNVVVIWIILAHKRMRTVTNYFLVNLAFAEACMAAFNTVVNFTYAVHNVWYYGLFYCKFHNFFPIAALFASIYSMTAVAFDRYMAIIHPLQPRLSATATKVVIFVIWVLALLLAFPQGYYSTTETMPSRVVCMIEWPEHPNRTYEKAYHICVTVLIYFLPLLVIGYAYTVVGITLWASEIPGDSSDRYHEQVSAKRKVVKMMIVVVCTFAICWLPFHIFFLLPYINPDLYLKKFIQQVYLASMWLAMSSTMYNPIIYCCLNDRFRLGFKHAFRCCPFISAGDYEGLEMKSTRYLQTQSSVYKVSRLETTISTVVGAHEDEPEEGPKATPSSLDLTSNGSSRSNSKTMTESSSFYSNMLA
Protocol: FIG. 14. Alteration in Tear Film after NK1R antagonist administration.
(§1) Phenol red thread tear test. To measure the tear levels in the eyes of unmanipulated B6 and NK1R^−/− mice, pH indicator phenol red treated cotton threads were obtained from Zone-Quick (ZQ-1010, Showa Yakuhin Kako, Japan). The mice were restrained by holding the lose skin at the base of the neck without touching the facial skin or whiskers. The eyes were tested for tear level by placing the tip of the cotton thread on the bulbar conjunctiva of the lateral canthus for 30 seconds. A picture of the threads was taken and tear absorption was measured using a 10 cm scale.

NK1R [2] = target: T1, NK1R; assay: Phenol red thread tear volume after ocular HSV-1 infection, GR73632 I.P. treatment; assay type: in vivo, mice; set-up: from tissue; host or cells: living mice (in vivo; eye / tear read-out after systemic dosing); details: GR73632 I.P. treated vs control treated group
Protocol: FIGS. 12A, 12B. Increased tear volume at D7 and D10 post ocular HSV-1 infection (POI) in GR73632 I.P treated eyes compared to the control treated group. Phenol Red thread (yellow color) images showing the thread wetness (red color) measured in mm.
Corneal HSV-1 infection. To carry out ocular HSV-1 infection, mice were first anesthetized by intra-peritoneal injection of Ketamine (33 mg/Kg bodyweight)+Xylazine (20 mg/Kg bodyweight) in 0.2 ml PBS. The cornea was scarified with trephine (Fine Science Tools, Foster City, Calif.) while twisting three to four times over the corneal surface. 1×10^4 plaque forming units (p.f.u) of HSV-1 virus were then topically applied with a pipette to the eye in 3 μL of 1×PBS followed by gentle massage of the eyelids.
as §1

Molecule	volume of basal tears (NK1R [1])	tear volume (phenol red thread wetness) (NK1R [2]; D7 post ocular HSV-1 infection, p<0.05)	tear volume (phenol red thread wetness) (NK1R [2]; D10 post ocular HSV-1 infection, p<0.01)
Spantide I	reduces the volume of basal tears	–	–
CSCC[C@H](NC(=O)[C@H](CC(C)C)N(C)C(=O)[C@@H]1CCCN1C(=O)[C@H](Cc1ccccc1)NC(=O)[C@H](Cc1ccccc1)NC(=O)CCCCN)C(N)=O [GR73632] (H-[Ava]FFP[NMeL]M-NH2)	–	Significant increase in tear volume	Significant increase in tear volume
